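Briefly, cells in 96-well plates were exposed to five compound concentrations for 48 h, and endpoints were estimated by linear interpolation. GI50 is the concentration that inhibits growth by half. Definition used: TGI = concentration required for complete inhibition of growth.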
How the values were obtained:
Assay in all cases: growth of human tumour cells (NCI), 48 h
LOX IMVI melanoma = tested on: LOX IMVI melanoma
MOLT-4 leukemia = tested on: MOLT-4 leukemia
RPMI-8226 leukemia = tested on: RPMI-8226 leukemia
RXF 393 renal = tested on: RXF 393 renal
SK-OV-3 ovarian = tested on: SK-OV-3 ovarian
U251 CNS = tested on: U251 CNS
PC-3 prostate = tested on: PC-3 prostate
OVCAR-4 ovarian = tested on: OVCAR-4 ovarian
SK-MEL-5 melanoma = tested on: SK-MEL-5 melanoma
NCI-H226 lung = tested on: NCI-H226 lung
ACHN renal = tested on: ACHN renal
HOP-62 NSCLC = tested on: HOP-62 NSCLC
OVCAR-3 ovarian = tested on: OVCAR-3 ovarian
SF-295 CNS = tested on: SF-295 CNS
SF-539 CNS = tested on: SF-539 CNS
NCI-H23 lung = tested on: NCI-H23 lung
MDA-MB-231 breast = tested on: MDA-MB-231 breast
HOP-92 NSCLC = tested on: HOP-92 NSCLC
MCF7 breast = tested on: MCF7 breast
DU-145 prostate = tested on: DU-145 prostate
SNB-19 CNS = tested on: SNB-19 CNS
SK-MEL-2 melanoma = tested on: SK-MEL-2 melanoma
UACC-257 melanoma = tested on: UACC-257 melanoma
UACC-62 melanoma = tested on: UACC-62 melanoma
HT29 colon = tested on: HT29 colon
HCT-15 colon = tested on: HCT-15 colon
CCRF-CEM leukemia = tested on: CCRF-CEM leukemia
IGROV1 ovarian = tested on: IGROV1 ovarian
OVCAR-8 ovarian = tested on: OVCAR-8 ovarian
SK-MEL-28 melanoma = tested on: SK-MEL-28 melanoma
HS 578T breast = tested on: HS 578T breast
SR leukemia = tested on: SR leukemia
786-0 renal = tested on: 786-0 renal
SW-620 colon = tested on: SW-620 colon
NCI/ADR-RES ovarian = tested on: NCI/ADR-RES ovarian
TK-10 renal = tested on: TK-10 renal
BT-549 breast = tested on: BT-549 breast
SN12C renal = tested on: SN12C renal
OVCAR-5 ovarian = tested on: OVCAR-5 ovarian
CAKI-1 renal = tested on: CAKI-1 renal
UO-31 renal = tested on: UO-31 renal
MALME-3M melanoma = tested on: MALME-3M melanoma
EKVX NSCLC = tested on: EKVX NSCLC
T-47D breast = tested on: T-47D breast
HCC-2998 colon = tested on: HCC-2998 colon
NCI-H460 lung = tested on: NCI-H460 lung
COLO 205 colon = tested on: COLO 205 colon
A549 NSCLC = tested on: A549 NSCLC
HL-60(TB) leukemia = tested on: HL-60(TB) leukemia
SF-268 CNS = tested on: SF-268 CNS
K-562 leukemia = tested on: K-562 leukemia
SNB-75 CNS = tested on: SNB-75 CNS
M14 melanoma = tested on: M14 melanoma
NCI-H522 lung = tested on: NCI-H522 lung

## CCOC(=O)c1cc(C(=O)c2cc(OC)cc(OC)c2)n2ncccc12
LOX IMVI melanoma
  GI50: 0.804 µM
  TGI: > 100 µM
MOLT-4 leukemia
  GI50: 2.63 µM
  TGI: > 100 µM
RPMI-8226 leukemia
  GI50: 1.82 µM
  TGI: > 100 µM
RXF 393 renal
  GI50: 1.64 µM
  TGI: 14.2 µM
SK-OV-3 ovarian
  GI50: 4.9 µM
  TGI: > 100 µM
U251 CNS
  GI50: 2 µM
  TGI: > 100 µM
PC-3 prostate
  GI50: 7.45 µM
  TGI: > 100 µM
OVCAR-4 ovarian
  GI50: 17 µM
  TGI: > 100 µM
SK-MEL-5 melanoma
  GI50: 0.508 µM
  TGI: > 100 µM
NCI-H226 lung
  GI50: > 100 µM
  TGI: > 100 µM
ACHN renal
  GI50: 12.2 µM
  TGI: > 100 µM
HOP-62 NSCLC
  GI50: 10.2 µM
  TGI: > 100 µM
OVCAR-3 ovarian
  GI50: 0.402 µM
  TGI: > 100 µM
SF-295 CNS
  GI50: 2.1 µM
  TGI: > 100 µM
SF-539 CNS
  GI50: 1.85 µM
  TGI: 40.2 µM
NCI-H23 lung
  GI50: 4.9 µM
  TGI: > 100 µM
MDA-MB-231 breast
  GI50: 8.18 µM
  TGI: > 100 µM
HOP-92 NSCLC
  GI50: 24.9 µM
  TGI: > 100 µM
MCF7 breast
  GI50: 1.31 µM
  TGI: > 100 µM
DU-145 prostate
  GI50: 3.96 µM
  TGI: > 100 µM
SNB-19 CNS
  GI50: 4.28 µM
  TGI: > 100 µM
SK-MEL-2 melanoma
  GI50: 0.738 µM
  TGI: > 100 µM
UACC-257 melanoma
  GI50: 67.1 µM
  TGI: > 100 µM
UACC-62 melanoma
  GI50: 0.523 µM
  TGI: > 100 µM
HT29 colon
  GI50: 0.403 µM
  TGI: > 100 µM
HCT-15 colon
  GI50: 0.587 µM
  TGI: > 100 µM
CCRF-CEM leukemia
  GI50: 2.51 µM
  TGI: > 100 µM
IGROV1 ovarian
  GI50: 7.12 µM
  TGI: > 100 µM
OVCAR-8 ovarian
  GI50: 3.77 µM
  TGI: > 100 µM
SK-MEL-28 melanoma
  GI50: 7.36 µM
  TGI: > 100 µM
HS 578T breast
  GI50: 1.99 µM
  TGI: > 100 µM
SR leukemia
  GI50: 0.573 µM
  TGI: > 100 µM
786-0 renal
  GI50: 11.4 µM
  TGI: > 100 µM
SW-620 colon
  GI50: 0.518 µM
  TGI: > 100 µM
NCI/ADR-RES ovarian
  GI50: 0.463 µM
  TGI: 61.1 µM
TK-10 renal
  GI50: 9.78 µM
  TGI: > 100 µM
BT-549 breast
  GI50: 1.22 µM
  TGI: > 100 µM
SN12C renal
  GI50: 4.16 µM
  TGI: > 100 µM
OVCAR-5 ovarian
  GI50: 43.5 µM
  TGI: > 100 µM
CAKI-1 renal
  GI50: 2.97 µM
  TGI: > 100 µM
UO-31 renal
  GI50: 5.68 µM
  TGI: > 100 µM
MALME-3M melanoma
  GI50: > 100 µM
  TGI: > 100 µM
EKVX NSCLC
  GI50: 4.74 µM
  TGI: > 100 µM
T-47D breast
  GI50: 17.2 µM
  TGI: > 100 µM
HCC-2998 colon
  GI50: 14.7 µM
  TGI: > 100 µM
NCI-H460 lung
  GI50: 2.58 µM
  TGI: > 100 µM
COLO 205 colon
  GI50: 0.797 µM
  TGI: 75.5 µM
A549 NSCLC
  GI50: 11.1 µM
  TGI: > 100 µM
HL-60(TB) leukemia
  GI50: 1.38 µM
  TGI: 4.66 µM
SF-268 CNS
  GI50: 26.5 µM
  TGI: > 100 µM
K-562 leukemia
  GI50: 0.539 µM
  TGI: > 100 µM
SNB-75 CNS
  GI50: 0.399 µM
  TGI: > 100 µM
M14 melanoma
  GI50: 0.394 µM
  TGI: > 100 µM

## Cc1c2c(cc[n+]1Cc1ccccc1)c1ccc(OCC3CCCCC3)cc1n2CC1CCCCC1
SK-OV-3 ovarian
  GI50: 0.506 µM
  TGI: 1.56 µM
OVCAR-4 ovarian
  GI50: 0.235 µM
  TGI: 0.735 µM
ACHN renal
  GI50: 1.24 µM
  TGI: 2.53 µM
SF-539 CNS
  GI50: 1.49 µM
  TGI: 2.88 µM
MCF7 breast
  GI50: 0.306 µM
  TGI: 1.11 µM
UACC-257 melanoma
  GI50: 0.299 µM
  TGI: 0.961 µM
UACC-62 melanoma
  GI50: 0.342 µM
  TGI: 1.28 µM
CCRF-CEM leukemia
  GI50: 0.207 µM
  TGI: 0.787 µM
IGROV1 ovarian
  GI50: 0.525 µM
  TGI: 2.51 µM
OVCAR-8 ovarian
  GI50: 0.364 µM
  TGI: 1.35 µM
SK-MEL-28 melanoma
  GI50: 0.59 µM
  TGI: 1.88 µM
HS 578T breast
  GI50: 0.525 µM
  TGI: 4.06 µM
NCI/ADR-RES ovarian
  GI50: 1.75 µM
  TGI: 4.29 µM
CAKI-1 renal
  GI50: 1.28 µM
  TGI: 2.64 µM
T-47D breast
  GI50: 0.56 µM
  TGI: 1.79 µM
SNB-75 CNS
  GI50: 0.293 µM
  TGI: 1.47 µM
NCI-H522 lung
  GI50: 0.261 µM
  TGI: 0.788 µM
